Measurements published in patent US7498300B2, “CRFR1 selective ligands” (The Salk Institute for Biological Studies, priority 2001, dated 2009).

Columns and labels:
human CRFR1 = target: T1, human CRFR1 (Homo sapiens, UniProt P34998); test: Competitive binding assay, CHO cells stably expressing human CRFR1, displacement of 125I-(Nle21,Tyr32) ovine CRF
T1 construct: expressed in transfected cells
T1 sequence (P34998 24-415): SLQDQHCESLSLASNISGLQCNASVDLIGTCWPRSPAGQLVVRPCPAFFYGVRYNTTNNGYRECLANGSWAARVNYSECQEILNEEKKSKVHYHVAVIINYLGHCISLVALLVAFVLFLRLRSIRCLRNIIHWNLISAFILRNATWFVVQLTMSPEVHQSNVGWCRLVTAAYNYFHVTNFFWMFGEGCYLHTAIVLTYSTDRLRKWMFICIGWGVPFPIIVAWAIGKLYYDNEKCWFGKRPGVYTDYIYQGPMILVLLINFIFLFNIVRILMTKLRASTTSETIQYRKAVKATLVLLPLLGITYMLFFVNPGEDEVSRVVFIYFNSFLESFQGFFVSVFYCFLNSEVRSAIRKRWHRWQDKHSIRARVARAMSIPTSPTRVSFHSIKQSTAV
Method: Binding affinity is a term used to refer to the strength of interaction between ligand and receptor. […] Ki (inhibitory binding affinity constant) is determined using a “standard” or “tracer” radioactive ligand and thus measures the displacement of the tracer from the receptor or binding protein; it is most properly expressed with reference to such tracer. However, so long as these assays are carefully performed under specific conditions with relatively low concentrations of receptor or the like, the calculated Ki will be substantially the same as its dissociation constant KD. […] It is particularly efficient to test for Ki because only a single tracer need be labelled, e.g. radioiodinated.
Binding assays with cells expressing human CRFR1 are carried out as described in the Chen et al. P.N.A.S., supra. The affinities of test peptides for CRFR1 and CRFR2 stably expressed in CHO cells were determined by competitive displacement of ^125I-(Nle^21, Tyr^32) ovine CRF (for CRFR1) or of [^125I-Tyr^o-]Ucn (for CRFR2) as described.

human CRFR2 = target: T2, human CRFR2 (Homo sapiens, UniProt Q13324); test: Competitive binding assay, CHO cells stably expressing human CRFR2, displacement of [125I-Tyr0]Ucn
T2 construct: expressed in transfected cells
T2 sequence (Q13324 1-411): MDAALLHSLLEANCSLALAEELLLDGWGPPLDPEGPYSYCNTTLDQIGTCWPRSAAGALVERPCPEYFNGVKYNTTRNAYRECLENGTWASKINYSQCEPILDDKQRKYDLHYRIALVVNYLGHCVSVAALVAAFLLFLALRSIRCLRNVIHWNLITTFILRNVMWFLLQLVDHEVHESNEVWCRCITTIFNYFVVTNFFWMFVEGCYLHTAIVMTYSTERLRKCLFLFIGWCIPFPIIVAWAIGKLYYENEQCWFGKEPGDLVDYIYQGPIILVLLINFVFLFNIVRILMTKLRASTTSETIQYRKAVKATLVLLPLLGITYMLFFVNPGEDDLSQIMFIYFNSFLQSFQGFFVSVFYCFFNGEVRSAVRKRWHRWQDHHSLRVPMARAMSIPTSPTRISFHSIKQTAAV
Method: The affinities of test peptides for CRFR1 and CRFR2 stably expressed in CHO cells were determined by competitive displacement of ^125I-(Nle^21, Tyr^32) ovine CRF (for CRFR1) or of [^125I-Tyr^o-]Ucn (for CRFR2) as described.

[1] = system: cultured rat pituitary cells; test: In vitro stimulation of ACTH and β-endorphin secretion by cultured rat pituitary cells; format: cell-based
Method: (§1) In vivo testing is carried out using the general procedure set forth in C.

[2] = In vivo lowering of blood pressure on peripheral administration; settings: administered peripherally
Method: as §1

| binding to CRFR1 (in words) (human CRFR1) | binding to CRFR2 (in words) (human CRFR2) | Substance | stimulation of the secretion of ACTH and β-END-LI [1] | lowering of blood pressure [2] |
| --- | --- | --- | --- | --- |
| binds strongly | only very weakly | (cyclo 31-34)[Ac-Pro^4, CML^19, Nle^21,38, Glu^31, Lys^34]-r/hCRF(4-41) [Example 5 B] | stimulates | very significant lowering of blood pressure |
| binds strongly | only very weakly | (cyclo 31-34)[Ac-Pro^4, D-Phe^12, CML^14,27, Nle^21,38, Glu^31, Lys^34]-r/hCRF(4-41) [Example 6 A] | stimulates | very significant lowering of blood pressure |
| binds strongly | only very weakly | (cyclo 31-34)[Ac-Pro^4, D-Phe^12, CML^14, Nle^21,38, Glu^31, Lys^34]-r/hCRF(4-41) [Example 5 A] | stimulates | very significant lowering of blood pressure |
| binds strongly | only very weakly | (cyclo 31-34)[Ac-Pro^4, D-Phe^12, CML^15, Nle^21,38, Glu^31, Lys^34]-r/hCRF(4-41) [Example 5] | stimulates | very significant lowering of blood pressure |
| binds strongly | only very weakly | (cyclo 31-34)[Ac-Pro^4, D-Phe^12, CML^17, Nle^21,38, Glu^31, Lys^34]-r/hCRF(4-41) [Example 5 E] | stimulates | very significant lowering of blood pressure |
| binds strongly | only very weakly | (cyclo 31-34)[Ac-Pro^4, D-Phe^12, CML^18,27, Nle^21,38, Glu^31, Lys^34]-r/hCRF(4-41) [Example 6 B] | stimulates | very significant lowering of blood pressure |
| binds strongly | only very weakly | (cyclo 31-34)[Ac-Pro^4, D-Phe^12, Nle^14,18,24, Glu^31, Lys^34]-flounder urotensin(4-41) [Example 3 G] | stimulates | very significant lowering of blood pressure |
| binds strongly | only very weakly | (cyclo 31-34)[Ac-Pro^4, D-Phe^12, Nle^14,18,24, Glu^31, Lys^34]-maggy urotensin(4-41) [Example 3 E] | stimulates | very significant lowering of blood pressure |
| bind strongly | only very weakly | (cyclo 31-34)[Ac-Pro^4, D-Phe^12, Nle^18,21, Glu^31, Lys^34]-AHC(4-41) [Example 3 A] | strongly stimulates | very significant lowering of blood pressure |
| binds strongly | only very weakly | (cyclo 31-34)[Ac-Pro^4, D-Phe^12, Nle^18,21, Glu^31, Lys^34]-carp urotensin(4-41) [Example 3 F] | stimulates | very significant lowering of blood pressure |
| binds strongly | only very weakly | (cyclo 31-34)[Ac-Pro^4, D-Phe^12, Nle^18,21, Glu^31, Lys^34]-sucker urotensin(4-41) [Example 3 B] | stimulates | very significant lowering of blood pressure |
| binds strongly | only very weakly | (cyclo 31-34)[Ac-Pro^4, D-Phe^12, Nle^21,37,38, Glu^31, Lys^34]-fish CRF(4-41) [Example 3 D] | stimulates | very significant lowering of blood pressure |
| binds strongly | only very weakly | (cyclo 31-34)[Ac-Pro^4, D-Phe^12, Nle^21,38, CML^27,36, Glu^31, D-His^32, Lys^34]-r/hCRF(4-41) [Example 6 C D-His^32 analog] | stimulates | very significant lowering of blood pressure |
| binds strongly | only very weakly | (cyclo 31-34)[Ac-Pro^4, D-Phe^12, Nle^21,38, CML^27,36, Glu^31, Lys^34]-r/hCRF(4-41) [Example 6 C] | stimulates | very significant lowering of blood pressure |
| binds strongly | only very weakly | (cyclo 31-34)[Ac-Pro^4, D-Phe^12, Nle^21,38, CML^27,37, Glu^31, Lys^34]-r/hCRF(4-41) [Example 6 D] | stimulates | very significant lowering of blood pressure |
| high affinity | bind only weakly | (cyclo 31-34)[Ac-Pro^4, D-Phe^12, Nle^21,38, CML^27,40, Glu^31, Aib^33, Lys^34]-r/hCRF(4-41) [Example 6 G] | stimulates | very significant lowering of blood pressure |
| high affinity | bind only weakly | (cyclo 31-34)[Ac-Pro^4, D-Phe^12, Nle^21,38, CML^27,40, Glu^31, D-Ala^33, Lys^34]-r/hCRF(4-41) [Example 6 I] | stimulates | very significant lowering of blood pressure |
| – | bind only weakly | (cyclo 31-34)[Ac-Pro^4, D-Phe^12, Nle^21,38, CML^27,40, Glu^31, D-Ser^33, Lys^34]-r/hCRF(4-41) [Example 6 H] | stimulates | very significant lowering of blood pressure |
| high affinity | bind only weakly | (cyclo 31-34)[Ac-Pro^4, D-Phe^12, Nle^21,38, CML^27,40, Glu^31, Lys^34]-r/hCRF(4-41) [Example 6 E] | stimulates | very significant lowering of blood pressure |
| binds strongly | only very weakly | (cyclo 31-34)[Ac-Pro^4, D-Phe^12, Nle^21,38, CML^27,41, Glu^31, Lys^34]-r/hCRF(4-41) [Example 6 F] | stimulates | very significant lowering of blood pressure |
| binds strongly | only very weakly | (cyclo 31-34)[Ac-Pro^4, D-Phe^12, Nle^21,38, CML^27, Glu^31, D-His^32, Lys^34]-r/hCRF(4-41) [Example 5 F] | stimulates | very significant lowering of blood pressure |
| binds strongly | only very weakly | (cyclo 31-34)[Ac-Pro^4, D-Phe^12, Nle^21,38, CML^27, Glu^31, Lys^34]-r/hCRF(4-41) [Example 5 C] | stimulates | very significant lowering of blood pressure |
| bind strongly | only very weaker | (cyclo 31-34)[Ac-Pro^4, D-Phe^12, Nle^21,38, Glu^31, Aib^33, Lys^34]-r/hCRF(4-41) [Example 4] | strongly stimulates | very significant lowering of blood pressure |
| binds strongly | only very weakly | (cyclo 31-34)[Ac-Pro^4, D-Phe^12, Nle^21,38, Glu^31, Lys^34, CML^37]-r/hCRF(4-41) [Example 5 D] | stimulates | very significant lowering of blood pressure |
